Measured values: patent US7989438B2, “Therapeutic compounds” (Istituto di Ricerche di Biologia Molecolare P. Angeletti SpA, priority 2007, dated 2011)
Where two headings read alike, the source gives them in different places.

Test system: HCV subgenomic replication
Assay: Cell based HCV replication assay (subgenomic replicon in Huh-7 cells, NS3 Cell-ELISA)
Conditions: activity ranges
Method in brief: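 Huh-7 cells stably carrying the I377neo/NS3-3′/wt subgenomic replicon, seeded at 10^4 cells/well in DMEM/10% FCS and exposed to inhibitor for 96 h. NS3 expression was measured by Cell-ELISA (mAb 10E5/24, alkaline phosphatase, absorbance 405/620 nm), in duplicate. IC50 was fitted to the Hill equation, with background from parental Huh-7 cells.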

[1] = Hepatitis C virus, Table A, Huh-7 replicon cells, 96 hours, read-out: IC50 (nM), Inhibition of HCV subgenomic replication
[2] = Table A, Huh-7 replicon cells, 96 hours, read-out: IC50 (nM), Inhibition of HCV subgenomic replication
[3] = Table 5, various macrocycles, read-out: IC50* (nM), Inhibition of HCV subgenomic replication
[4] = Hepatitis C virus, Huh-7, Table 3, various macrocycles, read-out: IC50* (nM), Inhibition of HCV subgenomic replication
[5] = Table 2, various macrocycles, read-out: IC50* (nM), Inhibition of HCV subgenomic replication

SMILES: CN1CCN2CCC(C2)N(C)S(=O)(=O)NC(=O)c2ccc3c(C4CCCCC4)c4n(c3c2)C[C@@H]1COc1ccccc1-4 [Compound A18, (18R)-29-cyclohexyl-10,17-dimethyl-20-oxa-9-thia-1,8,10,14,17-pentaazahexacyclo[16.9.1.1^2,6.1^3,27.1^11,14.0^21,26]hentriaconta-2(31),3,5,21,23,25,27(29)-heptaen-7-one 9,9-dioxide]
- IC50 [1]: < 25 nM

SMILES: COc1ccc2c(c1)OCC1CCN(C)CCCN(C)S(=O)(=O)NC(=O)c3ccc4c(C5CCCCC5F)c-2n(c4c3)C1 (single isomer, unassigned) [Compound A38, 14-[(1R,2S) or (1S,2R)-2-fluorocyclohexyl]-3-methoxy-18,22-dimethyl-7,8-dihydro-6H-7,11-(ethanoiminopropanoiminothioiminomethano)indolo[1,2-e][1,5]benzoxazocin-15-one 17,17-dioxide]
- IC50 [2]: < 25 nM

SMILES: CCN1CCN(CC)C2COc3ccccc3-c3c(C4CCCCC4)c4ccc(cc4n3C2)C(=O)NS(=O)(=O)N(C)CC1 [Example 107, (7R)-14-cyclohexyl-21,24-diethyl-18-methyl-7,8-dihydro-6H-7,11-(epiminoethanoiminoethanoiminothioiminomethano)-indolo[1,2-e][1,5]benzoxazocin-15-one 17,17-dioxide]
- IC50 (Table 1, 16 membered macrocycles, read-out: IC50* (nM), Inhibition of HCV subgenomic replication): < 25 nM

SMILES: Cc1cccc2c1OCC1CCN(CCN(C)C)CCCN(C)S(=O)(=O)NC(=O)c3ccc4c(C5CCCCC5)c-2n(c4c3)C1 [Example 522, (7R)-14-cyclohexyl-22-[2-(dimethylamino)ethyl]-4,18-dimethyl-7,8-dihydro-6H-7,11-(ethanoiminopropanoiminothioiminomethano)indolo[1,2-e][1,5]benzoxazocin-15-one 17,17-dioxide]
- IC50 [3]: < 25 nM

SMILES: CN1CCN2CCC(CC2)N(C)S(=O)(=O)NC(=O)c2ccc3c(C4CCCCC4)c4n(c3c2)C[C@@H]1COc1ccccc1-4 [Example 303, (5R)-31-cyclohexyl-4,24-dimethyl-7-oxa-23-thia-1,4,15,22,24-pentaazahexacyclo[23.2.2.1^5,15.1^14,17.1^16,20.0^8,13]dotriaconta-8,10,12,14(31),16(30),17,19-heptaen-21-one 23,23-dioxide]
- IC50 [4]: < 25 nM

SMILES: CN1CCNCCN(C)S(=O)(=O)NC(=O)c2ccc3c(C4CCCCC4)c4n(c3c2)CC1COc1ccccc1-4 [Compound A15, (7S)-14-cyclohexyl-18,24-dimethyl-7,8-dihydro-6H-7,11-(epiminoethanoiminoethanoiminothioiminomethano)indolo[1,2-e][1,5]benzoxazocin-15-one 17,17-dioxide]
- IC50 [2]: 150 to 500 nM

SMILES: CN1CCCC2COc3ccccc3-c3c(C4CCCCC4F)c4ccc(cc4n3C2)C(=O)NS(=O)(=O)N(C)CC1 (single isomer, unassigned) [Compound A40, (7R)-14-[(1R,2S) or (1S,2R)-2-fluorocyclohexyl]-18,21-dimethyl-7,8-dihydro-6H-7,11-(propanoiminoethanoiminothioiminomethano)indolo[1,2-e][1,5]benzoxazocin-15-one 17,17-dioxide]
- IC50 [2]: < 25 nM

SMILES: CN1CCOC2CCN(CC2)S(=O)(=O)NC(=O)c2ccc3c(C4CCCCC4)c4n(c3c2)C[C@@H]1COc1ccccc1-4 [Example 306, (20R)-31-cyclohexyl-21-methyl-18,24-dioxa-2-thia-1,3,10,21-tetraazahexacyclo[23.2.2.1^5,9.1^8,11.1^10,20.0^12,17]dotriaconta-5(32),6,8,11(31),12,14,16-heptaen-4-one 2,2-dioxide]
- IC50 [4]: 150 to 500 nM

SMILES: CN1CCCC2COc3ccccc3-c3c(C4CCCCC4)c4ccc(cc4n3C2)C(=O)NS(=O)(=O)N(C)CC1 [Compound A25, (7R)-14-cyclohexyl-18,21-dimethyl-7,8-dihydro-6H-7,11-(propanoiminoethanoiminothioiminomethano)indolo[1,2-e][1,5]benzoxazocin-15-one 17,17-dioxide]
- IC50 [2]: < 25 nM

SMILES: COc1ccc2c(c1)OCC1CCCN(C)CCN(C)S(=O)(=O)NC(=O)c3ccc4c(C5CCCCC5)c-2n(c4c3)C1 (single isomer, unassigned; (+)) [Compound A36, (+)-14-cyclohexyl-3-methoxy-18,21-dimethyl-7,8-dihydro-6H-7,11-(propanoiminoethanoiminothioiminomethano)indolo[1,2-e][1,5]benzoxazocin-15-one 17,17-dioxide]
- IC50 [2]: 25 to 150 nM

SMILES: CN1CCNCCN(C)S(=O)(=O)NC(=O)c2ccc3c(C4CCCCC4)c4n(c3c2)C[C@@H]1COc1c(CN2CCOCC2)cccc1-4 [Example 410, (7R)-14-cyclohexyl-18,24-dimethyl-4-(morpholin-4-ylmethyl)-7,8-dihydro-6H-7,11-(epiminoethanoiminoethanoiminothioiminomethano)-indolo[1,2-e][1,5]benzoxazocin-15-one 17,17-dioxide]
- IC50 (Table 4, various macrocycles, read-out: IC50* (nM), Inhibition of HCV subgenomic replication): 25 to 150 nM

SMILES: COc1ccc2c(c1)OCC1CCN(C)CCCN(C)S(=O)(=O)NC(=O)c3ccc4c(C5CCCCC5)c-2n(c4c3)C1 (single isomer, unassigned; (-)) [Compound A35, (−)-14-cyclohexyl-3-methoxy-18,22-dimethyl-7,8-dihydro-6H-7,11-(ethanoiminopropanoiminothioiminomethano)indolo[1,2-e][1,5]benzoxazocin-15-one 17,17-dioxide]
- IC50 [2]: < 25 nM

SMILES: CN1C2CCN(CCN(C)S(=O)(=O)NC(=O)c3ccc4c(C5CCCCC5)c5n(c4c3)C[C@@H]1COc1ccccc1-5)C2 [Example 301, (18R)-29-cyclohexyl-10,17-dimethyl-20-oxa-9-thia-1,8,10,13,17-pentaazahexacyclo[16.9.1.1^2,6.1^3,27.1^13,16.0^21,26]hentriaconta-2(31),3,5,21,23,25,27(29)-heptaen-7-one 9,9-dioxide]
- IC50 [4]: < 25 nM

SMILES: CCN1CCN(C)[C@H]2COc3cc(OCc4ccccn4)ccc3-c3c(C4CCCCC4)c4ccc(cc4n3C2)C(=O)NS(=O)(=O)N(C)CC1 [Example 211, (7R)-14-cyclohexyl-21-ethyl-18,24-dimethyl-3-(pyridin-2-ylmethoxy)-7,8-dihydro-6H-7,11-(epiminoethanoiminoethanoiminothioiminomethano)-indolo[1,2-e][1,5]benzoxazocin-15-one 17,17-dioxide]
- IC50 [5]: < 25 nM

SMILES: CN1[C@H]2CCN(CCN(C)S(=O)(=O)NC(=O)c3ccc4c(C5CCCCC5)c5n(c4c3)C[C@@H]1COc1ccccc1-5)C2 [Compound A21, (16S,18R)-29-cyclohexyl-10,17-dimethyl-20-oxa-9-thia-1,8,10,13,17-pentaazahexacyclo[16.9.1.1^2,6.1^3,27.1^13,16.0^21,26]hentriaconta-2(31),3,5,21,23,25,27(29)-heptaen-7-one 9,9-dioxide]
- IC50 [1]: < 25 nM

SMILES: CN1CCCN(C)S(=O)(=O)NC(=O)c2ccc3c(C4CCCCC4F)c4n(c3c2)CC(CC1)COc1ccccc1-4 (single isomer, unassigned) [Example 501, 14-[(1R,2S) or (1S,2R)-2-fluorocyclohexyl]-18,22-dimethyl-7,8-dihydro-6H-7,11-(ethanoiminopropanoiminothioiminomethano)indolo[1,2-e][1,5]benzoxazocin-15-one 17,17-dioxide]
- IC50 [3]: 25 to 150 nM

SMILES: Cc1ccc2c(c1)OCC1Cn3c-2c(C2CCCCC2)c2ccc(cc23)C(=O)NS(=O)(=O)N(C)CCN(C(C)C)CCN1C [Example 218, (7R)-14-cyclohexyl-21-isopropyl-3,18,24-trimethyl-7,8-dihydro-6H-7,11-(epiminoethanoiminoethanoiminothioiminomethano)-indolo[1,2-e][1,5]benzoxazocin-15-one 17,17-dioxide]
- IC50 [5]: < 25 nM

SMILES: CCCc1cccc2c1OC[C@H]1Cn3c-2c(C2CCCCC2)c2ccc(cc23)C(=O)NS(=O)(=O)N(C)CCN(CC)CCN1C [Compound A22, (7R)-14-cyclohexyl-21-ethyl-18,24-dimethyl-4-propyl-7,8-dihydro-6H-7,11-(epiminoethanoiminoethanoiminothioiminomethano)indolo[1,2-e][1,5]benzoxazocin-15-one 17,17-dioxide]
- IC50 [2]: 25 to 150 nM

SMILES: CN1CCNCCN(C)S(=O)(=O)NC(=O)c2ccc3c(C4CCCCC4)c4n(c3c2)CC1COc1ccccc1-4 [Compound A1, (7R)-14-cyclohexyl-18,24-dimethyl-7,8-dihydro-6H-7,11-(epiminoethanoiminoethanoiminothioiminomethano)indolo[1,2-e][1,5]benzoxazocin-15-one 17,17-dioxide]
- IC50 [2]: < 25 nM

SMILES: CN1CCC(C)(C)CCN(C)S(=O)(=O)NC(=O)c2ccc3c(C4CCCCC4)c4n(c3c2)CC1COc1ccccc1-4 [Example 512, (7R)-14-cyclohexyl-18,21,21,24-tetramethyl-7,8-dihydro-6H-7,11-(epiminopentanoiminothioiminomethano)indolo[1,2-e][1,5]benzoxazocin-15-one 17,17-dioxide]
- IC50 [3]: 150 to 500 nM
